Experimental data taken from the NIST ThermoML archive (doi:10.1016/j.jct.2013.10.034).
± gives the expanded uncertainty stated by the source.

Assay: xn = mol fraction of the nth substance listed
Settings: 100 kPa, Liquid; for mass density: Vibrating tube method; for viscosity: Falling or rolling sphere viscometry

CCCC[N+]1(C)CCCCC1.N#C[N-]C#N [1-butyl-1-methylpiperidinium dicyanamide] + O
Settings	mass density [kg/m3]	viscosity [mPa·s]
318.15 K, x1 = 1	1005.2 ± 0.49	–
323.15 K, x1 = 0.0936	992.05 ± 0.21	3.072 ± 0.49
323.15 K, x1 = 0.1748	995.43 ± 0.21	4.8 ± 0.77
323.15 K, x1 = 0.2651	997.8 ± 0.22	7.52 ± 1.2
323.15 K, x1 = 0.3581	999.24 ± 0.23	10.45 ± 1.7
323.15 K, x1 = 0.4952	1000.53 ± 0.25	14.98 ± 2.4
323.15 K, x1 = 0.6246	1001.31 ± 0.29	19.5 ± 3.1
323.15 K, x1 = 0.7878	1001.95 ± 0.36	27.35 ± 4.4
323.15 K, x1 = 0.9216	1002.33 ± 0.44	35.62 ± 5.7
323.15 K, x1 = 1	1002.47 ± 0.48	41.31 ± 6.6
328.15 K, x1 = 0.0936	988.8 ± 0.21	2.741 ± 0.44
328.15 K, x1 = 0.1748	992.22 ± 0.21	4.249 ± 0.68
328.15 K, x1 = 0.2651	994.68 ± 0.22	6.592 ± 1.1
328.15 K, x1 = 0.3581	996.18 ± 0.23	9.141 ± 1.5
328.15 K, x1 = 0.4952	997.63 ± 0.25	12.99 ± 2.1
328.15 K, x1 = 0.6246	998.47 ± 0.29	16.43 ± 2.6
328.15 K, x1 = 0.7878	999.19 ± 0.36	23.47 ± 3.8
328.15 K, x1 = 0.9216	999.6 ± 0.43	30.08 ± 4.8
328.15 K, x1 = 1	999.77 ± 0.48	34.72 ± 5.6
333.15 K, x1 = 0.0936	985.51 ± 0.21	2.461 ± 0.39
333.15 K, x1 = 0.1748	988.96 ± 0.21	3.788 ± 0.61
333.15 K, x1 = 0.2651	991.37 ± 0.22	6.05 ± 0.97
333.15 K, x1 = 0.3581	993.2 ± 0.23	8.041 ± 1.3
333.15 K, x1 = 0.4952	994.75 ± 0.25	11.37 ± 1.8
333.15 K, x1 = 0.6246	995.66 ± 0.29	13.93 ± 2.2
333.15 K, x1 = 0.7878	996.46 ± 0.36	20.41 ± 3.3
333.15 K, x1 = 0.9216	996.9 ± 0.43	25.64 ± 4.1
333.15 K, x1 = 1	997.08 ± 0.48	29.45 ± 4.7
338.15 K, x1 = 0.0936	982.59 ± 0.21	2.223 ± 0.36
338.15 K, x1 = 0.1748	985.7 ± 0.21	3.407 ± 0.55
338.15 K, x1 = 0.2651	988.38 ± 0.22	5.181 ± 0.83
338.15 K, x1 = 0.3581	990.24 ± 0.23	7.12 ± 1.1
338.15 K, x1 = 0.4952	991.9 ± 0.25	10.04 ± 1.6
338.15 K, x1 = 0.6246	992.85 ± 0.29	12.9 ± 2.1
338.15 K, x1 = 0.7878	993.65 ± 0.36	17.17 ± 2.8
338.15 K, x1 = 0.9216	994.16 ± 0.43	21.35 ± 3.4
338.15 K, x1 = 1	994.39 ± 0.48	–
343.15 K, x1 = 0.0936	979.99 ± 0.21	2.021 ± 0.32
343.15 K, x1 = 0.1748	982.41 ± 0.21	3.088 ± 0.49
343.15 K, x1 = 0.2651	984.88 ± 0.22	4.682 ± 0.75
343.15 K, x1 = 0.3581	986.93 ± 0.23	6.355 ± 1
343.15 K, x1 = 0.4952	988.84 ± 0.25	8.928 ± 1.4
343.15 K, x1 = 0.6246	990.06 ± 0.29	11.72 ± 1.9
343.15 K, x1 = 0.7878	990.92 ± 0.36	15.74 ± 2.5
343.15 K, x1 = 0.9216	991.45 ± 0.43	19.52 ± 3.1
343.15 K, x1 = 1	991.72 ± 0.48	21.98 ± 3.5
